Measured values taken from the supplement of paper PMC6045584.
± gives the standard deviation of the averaged measurements.

Assays:
[1] = compound: T1, COc1cc2nccc(Oc3ccc(NC(=O)C4(C(=O)Nc5ccc(F)cc5)CC4)cc3)c2cc1OC [CABOZANTINIB]; assay: surviving fraction relative to DMSO-only wells; higher = less growth inhibition; conditions: exposure time: 5 days
Procedure, shortened: (§1)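 In 384-well plates, 250–500 log-phase tumour cells per well were given 24 hours before five days of continuous exposure to inhibitors at 0.5, 1, 5, 10, 50, 100, 500 and 1000 nM. Surviving fraction is luminescence from CellTiter-Glo, normalised to the median of wells containing DMSO alone. Reading took place after 10 minutes at room temperature.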

[2] = compound: T2, O=C(CCCCCCC(=O)Nc1ccccc1)NO [VORINOSTAT]; assay: as above; conditions: exposure time: 5 days
Procedure, shortened: as §1

[3] = compound: T1, CABOZANTINIB; assay: area under dose-response curve of surviving fraction (unscaled, Aref=0) (surviving fraction x log10(nM)); higher = more resistant; conditions: exposure time: 5 days; dose range 0.5-1000 nM
Procedure, shortened: (§2)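 Three screens per tumour cell line were run in 384-well plates at eight inhibitor concentrations from 0.5 to 1000 nM over five days. Surviving fractions, from CellTiter-Glo luminescence normalised to DMSO-only wells, were fitted with 3-parameter logistic curves in the drc R package. The reported area under the curve is the unscaled activity area. It spans log10 dose, and Aref is 0.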

[4] = compound: Cn1ncnc1[C@H]1c2n[nH]c(=O)c3cc(F)cc(c23)N[C@@H]1c1ccc(F)cc1 [BMN-673]; assay: as above; conditions: exposure time: 5 days; dose range 0.5-1000 nM
Procedure, shortened: as §2

[5] = compound: C[C@@H]1CN(CC(=O)Nc2ccc3c(c2)Cc2cccc(-c4cc(=O)cc(N5CCOCC5)o4)c2S3)C[C@H](C)O1; assay: as above; conditions: exposure time: 5 days; dose range 0.5-1000 nM
Procedure, shortened: as §2

[6] = compound: T2, VORINOSTAT; assay: as above; conditions: exposure time: 5 days; dose range 0.5-1000 nM
Procedure, shortened: as §2

Test System | surviving fraction ([1]; 0.5 nM) | surviving fraction ([1]; 1 nM) | surviving fraction ([1]; 5 nM) | surviving fraction ([1]; 10 nM) | surviving fraction ([1]; 50 nM) | surviving fraction ([1]; 100 nM) | surviving fraction ([1]; 500 nM) | surviving fraction ([1]; 1000 nM) | surviving fraction ([2]; 0.5 nM) | surviving fraction ([2]; 1 nM) | surviving fraction ([2]; 5 nM) | surviving fraction ([2]; 10 nM) | surviving fraction ([2]; 50 nM) | surviving fraction ([2]; 100 nM) | surviving fraction ([2]; 500 nM) | surviving fraction ([2]; 1000 nM) | area under dose-response curve [3] | area under dose-response curve [4] | area under dose-response curve [5] | area under dose-response curve [6]
MDAMB468 BREAST | 1.04 ± 0.089 | 1.11 ± 0.044 | 1.05 ± 0.057 | 1.09 ± 0.017 | 1.13 ± 0.067 | 1.15 ± 0.07 | 1.05 ± 0.086 | 1.07 ± 0.092 | 0.891 ± 0.052 | 0.951 ± 0.03 | 1 ± 0.044 | 0.978 ± 0.023 | 1.12 ± 0.061 | 1.133 ± 0.007 | 0.818 ± 0.036 | 0.469 ± 0.007 | 3.58 | 2.09 | 3.17 | –
RDES SOFT TISSUE | 1.2 ± 0.077 | 1.09 ± 0.1 | 1.21 ± 0.064 | 1.13 ± 0.083 | 1.23 ± 0.12 | 1.09 ± 0.076 | 1.1 ± 0.03 | 1.22 ± 0.22 | 1.21 ± 0.099 | 1.19 ± 0.13 | 1.2 ± 0.029 | 1.1 ± 0.02 | 1.05 ± 0.073 | 1.11 ± 0.12 | 0.831 ± 0.13 | 1.12 ± 0.39 | 3.82 | 2.03 | – | 3.64
S68 BREAST | 1.05 ± 0.1 | 0.948 ± 0.075 | 0.937 ± 0.071 | 1.32 ± 0.15 | 1.2 ± 0.23 | 1.24 ± 0.41 | 0.986 ± 0.24 | 0.889 ± 0.23 | 0.723 ± 0.22 | 0.82 ± 0.18 | 0.91 ± 0.38 | 0.998 ± 0.21 | 1.22 ± 0.28 | 1.07 ± 0.17 | 0.73 ± 0.19 | 0.384 ± 0.018 | 3.55 | 1.74 | – | 3.12
SCC003 HEADNECK | 0.921 ± 0.063 | 0.878 ± 0.055 | 0.97 ± 0.02 | 0.965 ± 0.047 | 1.08 ± 0.011 | 1.04 ± 0.029 | 0.98 ± 0.03 | 0.936 ± 0.1 | 1 ± 0.086 | 1.01 ± 0.15 | 1.02 ± 0.1 | 1.01 ± 0.093 | 1.09 ± 0.067 | 1.12 ± 0.091 | 1.14 ± 0.12 | 0.847 ± 0.16 | 3.21 | 2.8 | 3.42 | –
SCC47 HEADNECK | 0.891 ± 0.022 | 0.894 ± 0.019 | 1.06 ± 0.062 | 1.03 ± 0.16 | 1.05 ± 0.14 | 1.08 ± 0.069 | 0.844 ± 0.025 | 0.922 ± 0.041 | 1.03 ± 0.04 | 1.03 ± 0.077 | 1.12 ± 0.034 | 1.02 ± 0.016 | 1.05 ± 0.023 | 1.1 ± 0.044 | 1.02 ± 0.083 | 0.897 ± 0.028 | 3.26 | – | 3.53 | 3.47
SG43 HEADNECK | 0.887 ± 0.051 | 0.863 ± 0.15 | 0.883 ± 0.019 | 0.788 ± 0.11 | 0.759 ± 0.18 | 0.737 ± 0.2 | 0.757 ± 0.056 | 0.708 ± 0.072 | 1.08 ± 0.16 | 1.13 ± 0.12 | 0.836 ± 0.23 | 1.03 ± 0.21 | 0.949 ± 0.15 | 1.1 ± 0.033 | 1.04 ± 0.28 | 0.729 ± 0.21 | 2.63 | 2.45 | – | 3.27
SUM149 BREAST | 1.03 ± 0.054 | 0.979 ± 0.19 | 0.912 ± 0.061 | 0.997 ± 0.021 | 0.987 ± 0.12 | 0.96 ± 0.084 | 0.91 ± 0.15 | 0.924 ± 0.091 | 1.1 ± 0.12 | 1.03 ± 0.044 | 1.08 ± 0.047 | 0.917 ± 0.038 | 1.06 ± 0.045 | 1.14 ± 0.016 | 0.996 ± 0.066 | 0.71 ± 0.031 | 3.18 | 0.994 | 3.07 | –
ZR751 BREAST | 0.87 ± 0.067 | 1.02 ± 0.013 | 1.05 ± 0.083 | 0.995 ± 0.032 | 1.04 ± 0.12 | 1.03 ± 0.086 | 1.07 ± 0.081 | 1.03 ± 0.087 | 1.22 ± 0.18 | 1.23 ± 0.18 | 1.16 ± 0.12 | 1.08 ± 0.2 | 1.37 ± 0.13 | 1.4 ± 0.19 | 1.23 ± 0.16 | 1.04 ± 0.17 | – | 3.29 | 3.26 | 4.01
